# Experimental data as given in PMC5218480 (PLoS ONE, 2017).
# Tested on: MV-4-11 cells
# Test: Gene expression microarray analysis (Affymetrix PrimeView) and GSEA
# Format: cell-based, human
# Design: RFU PODN (11730768_x_at) / Fold change /veh PODN (11730768_x_at) / RFU LINC00158 (11744669_a_at) / Fold change /veh LINC00158 (11744669_a_at) / RFU DUSP10 (11751237_a_at) / Fold change /veh DUSP10 (11751237_a_at) / RFU ID3 (11757404_x_at) / Fold change /veh ID3 (11757404_x_at) / RFU PLEKHG5 (11737974_s_at) / Fold change /veh PLEKHG5 (11737974_s_at) / RFU LRRC4B (11730491_at) / Fold change /veh LRRC4B (11730491_at) / RFU GIMAP4 (11747438_a_at) / Fold change /veh GIMAP4 (11747438_a_at) / RFU KRT8 (11758183_x_at) / Fold change /veh KRT8 (11758183_x_at) / RFU CNN1 (11734310_a_at) / Fold change /veh CNN1 (11734310_a_at) / RFU VPS37D (11726825_at) / Fold change /veh VPS37D (11726825_at) / RFU C10orf10 (11716522_x_at) / Fold change /veh C10orf10 (11716522_x_at) / RFU KIR2DL2 /// KIR2DL4 /// KIR2DL5A /// KIR2DL5B /// KIR2DS1 /// KIR2DS2 /// KIR2DS3 /// KIR2DS4 /// KIR3DL3 /// KIR3DL3 /// KIR3DS1 (11738374_at) / Fold change /veh KIR2DL2 /// KIR2DL4 /// KIR2DL5A /// KIR2DL5B /// KIR2DS1 /// KIR2DS2 /// KIR2DS3 /// KIR2DS4 /// KIR3DL3 /// KIR3DL3 /// KIR3DS1 (11738374_at) / RFU C1QL1 (11718748_at) / Fold change /veh C1QL1 (11718748_at) / RFU TMPRSS4 (11747572_a_at) / Fold change /veh TMPRSS4 (11747572_a_at) / RFU HAMP (11756126_x_at) / Fold change /veh HAMP (11756126_x_at) / RFU RNFT2 (11725882_a_at) / Fold change /veh RNFT2 (11725882_a_at) / RFU NR4A2 (11747474_a_at) / Fold change /veh NR4A2 (11747474_a_at) / RFU ABCC12 (11746883_a_at) / Fold change /veh ABCC12 (11746883_a_at) / RFU TMEM136 (11760407_x_at) / Fold change /veh TMEM136 (11760407_x_at) / RFU CLDN22 /// WWC2 (11732394_at) / Fold change /veh CLDN22 /// WWC2 (11732394_at) / RFU HLA-DPB1 (11760878_x_at) / Fold change /veh HLA-DPB1 (11760878_x_at) / RFU SPINT1 (11716480_a_at) / Fold change /veh SPINT1 (11716480_a_at) / RFU GAP43 (11754022_s_at) / Fold change /veh GAP43 (11754022_s_at) / RFU A4GNT (11735810_at) / Fold change /veh A4GNT (11735810_at) / RFU PRB3 (11715151_x_at) / Fold change /veh PRB3 (11715151_x_at) / RFU TUBB4B (11761932_at) / Fold change /veh TUBB4B (11761932_at) / RFU CAPN14 (11732068_a_at) / Fold change /veh CAPN14 (11732068_a_at) / RFU TMCC2 (11721928_a_at) / Fold change /veh TMCC2 (11721928_a_at) / RFU IRGQ (11745062_a_at) / Fold change /veh IRGQ (11745062_a_at) / RFU FAM174B (11720279_a_at) / Fold change /veh FAM174B (11720279_a_at) / RFU TMPRSS4 (11748680_a_at) / Fold change /veh TMPRSS4 (11748680_a_at) / RFU FAM212B (11763350_a_at) / Fold change /veh FAM212B (11763350_a_at) / RFU PLEKHG5 (11743358_a_at) / Fold change /veh PLEKHG5 (11743358_a_at) / RFU ZSCAN30 (11745921_a_at) / Fold change /veh ZSCAN30 (11745921_a_at) / RFU CMKLR1 (11741424_a_at) / Fold change /veh CMKLR1 (11741424_a_at) / RFU LOC101060620 /// MAPK8IP1 (11723275_at) / Fold change /veh LOC101060620 /// MAPK8IP1 (11723275_at) / RFU SPTSSB (11747773_x_at) / Fold change /veh SPTSSB (11747773_x_at) / RFU PRSS12 (11739890_at) / Fold change /veh PRSS12 (11739890_at) / RFU BIN1 (11741810_x_at) / Fold change /veh BIN1 (11741810_x_at) / RFU WNT11 (11732464_a_at) / Fold change /veh WNT11 (11732464_a_at) / RFU C10orf10 (11716521_a_at) / Fold change /veh C10orf10 (11716521_a_at) / RFU C5orf56 (11738089_at) / Fold change /veh C5orf56 (11738089_at) / RFU CYB561 (11721691_x_at) / Fold change /veh CYB561 (11721691_x_at) / RFU ANKRD19P (11752326_a_at) / Fold change /veh ANKRD19P (11752326_a_at) / RFU OR2T12 /// OR2T33 /// OR2T8 (11738714_s_at) / Fold change /veh OR2T12 /// OR2T33 /// OR2T8 (11738714_s_at) / RFU VCAN (11748164_a_at) / Fold change /veh VCAN (11748164_a_at) / RFU JSRP1 (11732532_at) / Fold change /veh JSRP1 (11732532_at) / RFU KRTAP10-11 (11738290_x_at) / Fold change /veh KRTAP10-11 (11738290_x_at) / RFU MYO3A (11730013_a_at) / Fold change /veh MYO3A (11730013_a_at) / RFU EBF3 (11725865_a_at) / Fold change /veh EBF3 (11725865_a_at) / RFU CAMK2N1 (11719241_x_at) / Fold change /veh CAMK2N1 (11719241_x_at) / RFU C5orf56 (11738088_a_at) / Fold change /veh C5orf56 (11738088_a_at) / RFU OLFML3 (11715873_a_at) / Fold change /veh OLFML3 (11715873_a_at) / RFU LOC100653217 /// NTM (11731650_a_at) / Fold change /veh LOC100653217 /// NTM (11731650_a_at) / RFU MAPK11 (11762145_a_at) / Fold change /veh MAPK11 (11762145_a_at) / RFU FIZ1 (11724087_x_at) / Fold change /veh FIZ1 (11724087_x_at) / RFU OASL (11726364_x_at) / Fold change /veh OASL (11726364_x_at) / RFU SOX15 (11748057_x_at) / Fold change /veh SOX15 (11748057_x_at) / RFU CD79A (11719716_a_at) / Fold change /veh CD79A (11719716_a_at) / RFU HIST1H1D (11736915_at) / Fold change /veh HIST1H1D (11736915_at) / RFU CASKIN2 (11723855_a_at) / Fold change /veh CASKIN2 (11723855_a_at) / RFU LOC730098 (11760151_x_at) / Fold change /veh LOC730098 (11760151_x_at) / RFU OR4N2 (11742367_at) / Fold change /veh OR4N2 (11742367_at) / RFU PRRT2 (11749266_a_at) / Fold change /veh PRRT2 (11749266_a_at) / RFU SNX32 (11753110_a_at) / Fold change /veh SNX32 (11753110_a_at) / RFU CDHR5 (11726645_a_at) / Fold change /veh CDHR5 (11726645_a_at) / RFU RCAN1 (11760418_a_at) / Fold change /veh RCAN1 (11760418_a_at) / RFU FAM167A (11723789_a_at) / Fold change /veh FAM167A (11723789_a_at) / RFU FAM26E (11764081_at) / Fold change /veh FAM26E (11764081_at) / RFU ISYNA1 (11749810_s_at) / Fold change /veh ISYNA1 (11749810_s_at) / RFU ACY1 (11761880_at) / Fold change /veh ACY1 (11761880_at) / RFU 11764098_at / Fold change /veh 11764098_at / RFU SAMD14 (11745864_x_at) / Fold change /veh SAMD14 (11745864_x_at) / RFU NPB (11741838_a_at) / Fold change /veh NPB (11741838_a_at) / RFU TMPRSS6 (11731388_a_at) / Fold change /veh TMPRSS6 (11731388_a_at) / RFU KRTAP10-2 (11738614_at) / Fold change /veh KRTAP10-2 (11738614_at) / RFU ARHGAP8 /// PRR5-ARHGAP8 (11727945_x_at) / Fold change /veh ARHGAP8 /// PRR5-ARHGAP8 (11727945_x_at) / RFU KRTAP5-7 /// NADSYN1 (11734609_at) / Fold change /veh KRTAP5-7 /// NADSYN1 (11734609_at) / RFU RASL12 (11751679_a_at) / Fold change /veh RASL12 (11751679_a_at) / RFU CDKN2B (11736163_a_at) / Fold change /veh CDKN2B (11736163_a_at) / RFU PRF1 (11729649_at) / Fold change /veh PRF1 (11729649_at) / RFU, ZNF638 /// ZNF638-IT1 / Fold change vs veh, ZNF638 /// ZNF638-IT1 / RFU, PANK3 / Fold change vs veh, PANK3 / RFU, SH3YL1 / Fold change vs veh, SH3YL1 / RFU, ZEB2 / Fold change vs veh, ZEB2 / RFU, NRIP1 / Fold change vs veh, NRIP1 / RFU, PTTG1IP / Fold change vs veh, PTTG1IP / RFU, CAPN2 / Fold change vs veh, CAPN2 / RFU, MED14 / Fold change vs veh, MED14 / RFU, SNORA58 / Fold change vs veh, SNORA58 / RFU, C1orf63 / Fold change vs veh, C1orf63 / RFU, LRRFIP1 / Fold change vs veh, LRRFIP1 / RFU, NDUFAF7 / Fold change vs veh, NDUFAF7 / RFU, SLC12A2 / Fold change vs veh, SLC12A2 / RFU, IBTK / Fold change vs veh, IBTK / RFU, ESF1 / Fold change vs veh, ESF1 / Fold change vs veh, TMEM50B / RFU, TAOK1 / Fold change vs veh, TAOK1 / RFU, ACBD3 / Fold change vs veh, ACBD3 / RFU, TMA16 / Fold change vs veh, TMA16 / RFU, RWDD3 / Fold change vs veh, RWDD3 / RFU, BCAT1 / Fold change vs veh, BCAT1 / RFU, EDEM3 / Fold change vs veh, EDEM3 / RFU, TMEM33 / Fold change vs veh, TMEM33 / RFU, WDR75 / Fold change vs veh, WDR75 / RFU, AHCTF1 / Fold change vs veh, AHCTF1 / RFU, TFRC / Fold change vs veh, TFRC / RFU, ZDHHC17 / Fold change vs veh, ZDHHC17 / RFU, NOM1 / Fold change vs veh, NOM1 / RFU, ARL8B / Fold change vs veh, ARL8B / RFU, ZBTB11 / Fold change vs veh, ZBTB11 / RFU, TAMM41 / Fold change vs veh, TAMM41 / RFU, KIAA1704 /// LOC100996395 / Fold change vs veh, KIAA1704 /// LOC100996395 / RFU, ING1 / Fold change vs veh, ING1 / RFU, TRMT61B / Fold change vs veh, TRMT61B / RFU, FUBP3 / Fold change vs veh, FUBP3 / RFU, TP53 / Fold change vs veh, TP53 / RFU, TNKS2 / Fold change vs veh, TNKS2 / RFU, ZFP14 / Fold change vs veh, ZFP14 / RFU, ACTR2 / Fold change vs veh, ACTR2 / RFU, PPP3R1 / Fold change vs veh, PPP3R1 / RFU, PIK3R1 / Fold change vs veh, PIK3R1 / RFU, HNRNPA1 / Fold change vs veh, HNRNPA1 / RFU, RNF170 / Fold change vs veh, RNF170 / RFU, ZNF28 / Fold change vs veh, ZNF28 / RFU, RNGTT / Fold change vs veh, RNGTT / RFU, OGT / Fold change vs veh, OGT / RFU, BRD1 / Fold change vs veh, BRD1 / RFU, MARS / Fold change vs veh, MARS / RFU, ZNF655 / Fold change vs veh, ZNF655 / RFU, FAHD1 / Fold change vs veh, FAHD1 / RFU, BDP1 / Fold change vs veh, BDP1 / RFU, LRRCC1 / Fold change vs veh, LRRCC1 / RFU, ARID1A / Fold change vs veh, ARID1A / RFU, ZNF146 / Fold change vs veh, ZNF146 / RFU, ZNF330 / Fold change vs veh, ZNF330 / RFU, GPN3 / Fold change vs veh, GPN3 / RFU, C9orf123 / Fold change vs veh, C9orf123 / RFU, N4BP2L2 / Fold change vs veh, N4BP2L2 / RFU, ARFIP1 / Fold change vs veh, ARFIP1 / RFU, FAM179B / Fold change vs veh, FAM179B / RFU, BCL10 / Fold change vs veh, BCL10 / RFU, UHRF1BP1L / Fold change vs veh, UHRF1BP1L / RFU, BET1 / Fold change vs veh, BET1 / RFU, CNOT2 / Fold change vs veh, CNOT2 / RFU, ZNF268 / Fold change vs veh, ZNF268 / Fold change vs veh, ZNF507 / RFU, DGCR2 / Fold change vs veh, DGCR2 / RFU, WDSUB1 / Fold change vs veh, WDSUB1 / Fold change vs veh, HSP90B1 /// MIR3652 / RFU, ADSS / Fold change vs veh, ADSS / RFU, GK / Fold change vs veh, GK / RFU, ZNF148 / Fold change vs veh, ZNF148 / RFU, TAF9 / Fold change vs veh, TAF9 / RFU, SLC1A5 / Fold change vs veh, SLC1A5 / RFU, SLMO2 / Fold change vs veh, SLMO2 / RFU, ABCC4 / Fold change vs veh, ABCC4 / RFU, LOC101060439 /// RAP1B / Fold change vs veh, LOC101060439 /// RAP1B / RFU, RFX7 / Fold change vs veh, RFX7 / RFU, GTPBP10 / Fold change vs veh, GTPBP10 / RFU, CNEP1R1 / Fold change vs veh, CNEP1R1 / RFU, BIVM-ERCC5 /// ERCC5 / Fold change vs veh, BIVM-ERCC5 /// ERCC5 / RFU, ILF3 / Fold change vs veh, ILF3 / RFU 11762660_at / Fold change /veh 11762660_at / RFU VCAN (11757783_s_at) / Fold change /veh VCAN (11757783_s_at) / RFU DDX43 (11728927_at) / Fold change /veh DDX43 (11728927_at) / RFU KRT8 (11758188_x_at) / Fold change /veh KRT8 (11758188_x_at) / RFU NKD1 (11759106_at) / Fold change /veh NKD1 (11759106_at) / RFU SRD5A1 (11742802_a_at) / Fold change /veh SRD5A1 (11742802_a_at) / RFU TPSAB1 /// TPSB2 (11721975_s_at) / Fold change /veh TPSAB1 /// TPSB2 (11721975_s_at) / RFU GSTM3 (11746129_a_at) / Fold change /veh GSTM3 (11746129_a_at) / RFU IL23R (11737362_x_at) / Fold change /veh IL23R (11737362_x_at) / RFU TMEM51 (11727254_a_at) / Fold change /veh TMEM51 (11727254_a_at) / RFU PIWIL2 (11732686_x_at) / Fold change /veh PIWIL2 (11732686_x_at) / RFU ORM1 (11744905_x_at) / Fold change /veh ORM1 (11744905_x_at) / RFU CCDC152 (11743942_at) / Fold change /veh CCDC152 (11743942_at) / RFU ECM1 (11717891_a_at) / Fold change /veh ECM1 (11717891_a_at) / RFU IL23R (11748794_a_at) / Fold change /veh IL23R (11748794_a_at) / RFU TNFAIP8L3 (11732012_x_at) / Fold change /veh TNFAIP8L3 (11732012_x_at) / RFU MBOAT4 (11741988_at) / Fold change /veh MBOAT4 (11741988_at) / RFU 11764193_at / Fold change /veh 11764193_at / RFU TMEM53 (11763286_at) / Fold change /veh TMEM53 (11763286_at) / RFU MAGEB2 (11727129_at) / Fold change /veh MAGEB2 (11727129_at) / RFU TMEM200A (11744735_a_at) / Fold change /veh TMEM200A (11744735_a_at) / RFU CCDC152 (11751479_a_at) / Fold change /veh CCDC152 (11751479_a_at) / RFU FAM211A (11726209_a_at) / Fold change /veh FAM211A (11726209_a_at) / RFU RGS16 (11746705_a_at) / Fold change /veh RGS16 (11746705_a_at) / RFU VCAN (11755009_s_at) / Fold change /veh VCAN (11755009_s_at) / RFU RHOB (11743442_s_at) / Fold change /veh RHOB (11743442_s_at) / RFU RGS16 (11720943_a_at) / Fold change /veh RGS16 (11720943_a_at) / RFU RGS16 (11720944_at) / Fold change /veh RGS16 (11720944_at) / RFU, VPS4B / Fold change vs veh, VPS4B / RFU, CREB1 / Fold change vs veh, CREB1 / RFU, DNAJC13 / Fold change vs veh, DNAJC13 / RFU, GNAQ / Fold change vs veh, GNAQ / RFU, CDK5R1 / Fold change vs veh, CDK5R1 / RFU, ZRANB3 / Fold change vs veh, ZRANB3 / RFU, CUL4A / Fold change vs veh, CUL4A / RFU, CCNY / Fold change vs veh, CCNY / RFU, UFL1 / Fold change vs veh, UFL1 / RFU, COG3 / Fold change vs veh, COG3 / RFU, DIAPH2 / Fold change vs veh, DIAPH2 / RFU, SKA2 / Fold change vs veh, SKA2 / RFU, AFF3 / Fold change vs veh, AFF3 / RFU, LMF1 / Fold change vs veh, LMF1 / RFU, IPO11 / Fold change vs veh, IPO11 / RFU, DFFB / Fold change vs veh, DFFB / RFU, FOXP1 / Fold change vs veh, FOXP1 / RFU, CARD8 / Fold change vs veh, CARD8 / RFU, STRN3 / Fold change vs veh, STRN3 / RFU, ADK / Fold change vs veh, ADK / RFU, RASSF2 / Fold change vs veh, RASSF2 / RFU, WIPF1 / Fold change vs veh, WIPF1 / RFU, LARP1B / Fold change vs veh, LARP1B / RFU, RASA1 / Fold change vs veh, RASA1 / RFU, RB1 / Fold change vs veh, RB1 / RFU, PPFIA1 / Fold change vs veh, PPFIA1 / RFU, MAT2A / Fold change vs veh, MAT2A / RFU, CCT5 / Fold change vs veh, CCT5 / RFU, WDR92 / Fold change vs veh, WDR92 / RFU, CUX1 / Fold change vs veh, CUX1 / RFU, TTC7A / Fold change vs veh, TTC7A / RFU, TMEM135 / Fold change vs veh, TMEM135 / RFU, DEPTOR / Fold change vs veh, DEPTOR / RFU, CPM / Fold change vs veh, CPM / RFU, DNAJB6 / Fold change vs veh, DNAJB6 / RFU, CACNA2D3 / Fold change vs veh, CACNA2D3 / RFU, DTX4 / Fold change vs veh, DTX4 / RFU, TFCP2 / Fold change vs veh, TFCP2 / RFU, GMCL1 /// GMCL1P1 / Fold change vs veh, GMCL1 /// GMCL1P1 / RFU, AEBP2 / Fold change vs veh, AEBP2 / RFU, SNHG1 /// SNORD22 /// SNORD25 /// SNORD26 /// SNORD27 /// SNORD28 /// SNORD29 /// SNORD31 / Fold change vs veh, SNHG1 /// SNORD22 /// SNORD25 /// SNORD26 /// SNORD27 /// SNORD28 /// SNORD29 /// SNORD31 / Fold change (Aza/veh), C12orf56 (ProbeSet 11735607_a_at) / Fold change (ACY-1035/veh), C12orf56 (ProbeSet 11735607_a_at) / Fold change (Aza/veh), FGFR1OP (ProbeSet 11751329_s_at) / Fold change (ACY-1035/veh), FGFR1OP (ProbeSet 11751329_s_at) / Fold change (Aza/veh), VPS36 (ProbeSet 11739960_a_at) / Fold change (ACY-1035/veh), VPS36 (ProbeSet 11739960_a_at) / RFU SYPL1 (11715823_x_at) / Fold change /veh SYPL1 (11715823_x_at) / RFU IGFBP7 (11715501_s_at) / Fold change /veh IGFBP7 (11715501_s_at) / RFU REEP3 (11722064_at) / Fold change /veh REEP3 (11722064_at) / RFU IGLL1 (11728026_x_at) / Fold change /veh IGLL1 (11728026_x_at): dose or concentration left out as unconfirmed
# Settings: MV-4-11 cells, 48 hours
structure (smiles),measurement,value
Nc1ncn([C@@H]2O[C@H](CO)[C@@H](O)[C@H]2O)c(=O)n1 [azacitidine],Fold change /veh ID3 (11757404_x_at),1.09
